Measurements from the NIST ThermoML archive (doi:10.1016/j.tca.2016.02.005).

Columns and labels:
[1] = xn = mol fraction of the nth substance listed; conditions: 101.3 kPa, Liquid, x1 = 1; for speed of sound: Frequency=3 MHz, Sing-around technique in a fixed-path interferometer; for mass density: Vibrating tube method
[2] = refractive index (Na D-line) (dimensionless); xn = mol fraction of the nth substance listed; conditions: 101.3 kPa, Liquid, Standard Abbe refractometry, x1 = 1
[3] = 101.3 kPa, Liquid; for speed of sound: Frequency=3 MHz, Sing-around technique in a fixed-path interferometer; for mass density: Vibrating tube method
[4] = refractive index (Na D-line) (dimensionless); conditions: 101.3 kPa, Liquid, Standard Abbe refractometry

CCn1cc[n+](C)c1.F[B-](F)(F)F [1-ethyl-3-methylimidazolium tetrafluoroborate] + COCCO
Conditions | mass density, [1] [kg/m3] | refractive index, [2] | speed of sound, [1] [m/s]
298.15 K | 1277.6 | 1.4103 | 1622.9
308.15 K | 1269.9 | 1.4077 | 1599.5
318.15 K | 1262.1 | 1.4051 | 1576.5
328.15 K | 1254.6 | 1.4023 | 1553.8

COCCO [2-methoxyethan-1-ol]
Conditions | mass density, [3] [kg/m3] | refractive index, [4] | speed of sound, [3] [m/s]
298.15 K | 960.9 | 1.4003 | 1345.8
308.15 K | 951.7 | 1.3961 | 1311.3
318.15 K | 942.7 | 1.3917 | 1276.4
328.15 K | 933.4 | 1.3876 | 1241.9

CCn1cc[n+](C)c1.F[B-](F)(F)F [1-ethyl-3-methylimidazolium tetrafluoroborate]
Conditions | mass density, [3] [kg/m3] | refractive index, [4] | speed of sound, [3] [m/s]
298.15 K | 1277.6 | 1.4103 | 1622.9
308.15 K | 1269.9 | 1.4077 | 1599.5
318.15 K | 1262.1 | 1.4051 | 1576.5
328.15 K | 1254.6 | 1.4023 | 1553.8
